Data as given in ChEMBL document CHEMBL5385906, “Discovery of a Potent, Selective, and Orally Bioavailable Tool Compound for Probing the Role of Lysophosphatidic Acid Type 2 Receptor Antagonists in Fibrotic Disorders” (J Med Chem, 2023).
pIC50: −log10 of the molar value.

What was measured:
[1] = biological target: Lysophosphatidic acid receptor 1 (Homo sapiens, UniProt Q92633)
Description: Antagonist activity at human LPA1 receptor expressed in CHO cells assessed as inhibition of LPA-induced calcium mobilization pretreated for 15 mins followed by LPA stimulation by FLIPR analysis

[2] = biological target: Lysophosphatidic acid receptor 2 (Homo sapiens, UniProt Q9HBW0)
Description: Antagonist activity at human LPA2 receptor expressed in CHO cells assessed as inhibition of LPA-induced calcium mobilization pretreated for 15 mins followed by LPA stimulation by FLIPR analysis

[3] = biological target: Lysophosphatidic acid receptor 2 (Mus musculus, UniProt Q9JL06); assay: Antagonist activity at mouse LPA2 receptor expressed in HeLa cells assessed as inhibition of LPA-induced calcium mobilization pretreated for 15 mins followed by LPA stimulation by FLIPR analysis; format: functional, cell-based; conditions: read-out: pIC50 (converted)
[4] = in vitro; conditions: human, liver microsomes, CLH
Description: Intrinsic clearance in human liver microsomes at 0.5 uM in presence of NADPH regenerating system measured for 45 mins per mg protein by LC-MS/MS analysis

[5] = in vitro; conditions: C57BL/6J, mouse, liver microsomes
Description: Intrinsic clearance in C57BL/6J mouse liver microsomes at 0.5 uM in presence of NADPH regenerating system measured for 45 mins per mg protein by LC-MS/MS analysis

Sequence of Lysophosphatidic acid receptor 1 (Q92633 whole entry): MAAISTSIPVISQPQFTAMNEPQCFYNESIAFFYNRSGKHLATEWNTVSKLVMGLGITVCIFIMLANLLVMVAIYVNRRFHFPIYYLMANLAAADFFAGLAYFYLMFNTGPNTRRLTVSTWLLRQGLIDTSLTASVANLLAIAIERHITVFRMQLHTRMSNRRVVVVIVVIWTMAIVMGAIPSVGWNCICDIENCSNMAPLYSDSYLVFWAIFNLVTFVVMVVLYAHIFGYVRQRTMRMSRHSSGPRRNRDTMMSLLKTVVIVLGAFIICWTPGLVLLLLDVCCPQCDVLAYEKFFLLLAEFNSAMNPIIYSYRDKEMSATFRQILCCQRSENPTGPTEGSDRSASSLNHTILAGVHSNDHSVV
Sequence of Lysophosphatidic acid receptor 2 (Homo sapiens, UniProt Q9HBW0) (Q9HBW0 whole entry): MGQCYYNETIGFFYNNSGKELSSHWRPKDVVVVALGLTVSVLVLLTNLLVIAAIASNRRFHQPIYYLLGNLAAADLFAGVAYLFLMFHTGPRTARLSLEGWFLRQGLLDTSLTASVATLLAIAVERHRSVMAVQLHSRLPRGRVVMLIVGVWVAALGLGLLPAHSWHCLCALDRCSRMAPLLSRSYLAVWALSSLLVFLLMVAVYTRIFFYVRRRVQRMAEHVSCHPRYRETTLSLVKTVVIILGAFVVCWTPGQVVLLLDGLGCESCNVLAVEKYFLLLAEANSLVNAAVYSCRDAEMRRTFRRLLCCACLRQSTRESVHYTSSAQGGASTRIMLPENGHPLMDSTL
Sequence of Lysophosphatidic acid receptor 2 (Mus musculus, UniProt Q9JL06) (Q9JL06 whole entry): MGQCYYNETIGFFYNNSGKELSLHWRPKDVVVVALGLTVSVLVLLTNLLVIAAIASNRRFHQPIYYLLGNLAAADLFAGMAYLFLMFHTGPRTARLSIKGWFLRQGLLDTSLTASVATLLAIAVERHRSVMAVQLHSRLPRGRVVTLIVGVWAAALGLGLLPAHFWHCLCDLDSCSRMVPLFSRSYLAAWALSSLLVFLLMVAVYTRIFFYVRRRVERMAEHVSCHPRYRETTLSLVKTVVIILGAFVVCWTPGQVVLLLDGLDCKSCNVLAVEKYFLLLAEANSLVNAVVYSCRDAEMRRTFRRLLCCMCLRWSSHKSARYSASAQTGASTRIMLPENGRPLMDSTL

Structure (SMILES)	pIC50 [1]	pIC50 [2]	other results
COC(=O)Nc1nc(C)c(S(=O)(=O)N2CCN(C[C@H](C)Nc3ncnc4c(-c5ccc(CN6CCCC6)cc5)cccc34)CC2)s1			IC50 [3]: 0.0174 µM
Cc1csc2c(N[C@@H](C)CN3CCN(S(=O)(=O)c4ccc(Cl)c(Cl)c4)CC34CC4)ncnc12		5.03	
CC(CN1CCN(S(=O)(=O)c2ccc(Cl)c(Cl)c2)CC1)Nc1ncnc2c(-c3ccccc3)csc12 (racemic)	< 4.30	5.46	microsomal CLint at 0.75 h, 0.5 µM [4]: 228 µL/min/mg; microsomal CLint at 0.75 h, 0.5 µM [5]: 270 µL/min/mg
Cc1csc2c(N[C@@H](C)CN3CCN(S(=O)(=O)C4CCCCC4)CC3)ncnc12		4.60	
COC(=O)Nc1nc(C)c(S(=O)(=O)N2CCN(C[C@H](C)Nc3ncnc4c(-c5cccnc5)cccc34)CC2)s1	< 5.30		IC50 [3]: 0.00257 µM
Cc1ccc(S(=O)(=O)N2CCN(C[C@H](C)Nc3ncnc4c(C)csc34)CC2)cc1C		5.55	
Cc1cc2ncnc(NC(C)CN3CCN(S(=O)(=O)c4ccc(Cl)c(Cl)c4)CC3)c2s1 (racemic)	4.98	4.87	
Cc1csc2c(N[C@@H](C)CNC3CCC(NS(=O)(=O)c4ccc(Cl)c(Cl)c4)CC3)ncnc12 (stereo partly specified)		4.45	
Cc1cccc2c(NC(C)CN3CCN(S(=O)(=O)c4ccc(Cl)c(Cl)c4)CC3)ncnc12 (stereo in doubt; 42b)	4.90	5.38	microsomal CLint at 0.75 h, 0.5 µM [4]: 789 µL/min/mg; microsomal CLint at 0.75 h, 0.5 µM [5]: 698 µL/min/mg

Further lines, with some results ahead:

pIC50 [1]	pIC50 [2]	Structure (SMILES)	other results
< 4.30		Cc1csc2c(N[C@@H](C)C(=O)N3CCN(S(=O)(=O)c4ccc(Cl)c(Cl)c4)CC3)ncnc12	
	5.08	Cc1csc2c(NC3(CN4CCN(S(=O)(=O)c5ccc(Cl)c(Cl)c5)CC4)CC3)ncnc12	
	4.79	Cc1csc2c(N[C@@H](C)CN3CCN(S(=O)(=O)C(=O)c4ccc(Cl)c(Cl)c4)CC3)ncnc12	
	5.44	Cc1csc2c(N[C@@H](C)CN3CCN(S(=O)(=O)c4ccc(Cl)cc4Cl)CC3)ncnc12	
	5.21	Cc1csc2c(NCC(C)N3CCN(S(=O)(=O)c4ccc(Cl)c(Cl)c4)CC3)ncnc12 (stereo in doubt; 6b)	
	5.09	C[C@@H](CN1CCN(S(=O)(=O)c2ccc(Cl)c(Cl)c2)CC1)Nc1ncnc2ccn(C)c12	
	6.25	Cc1csc2c(N[C@@H](C)CN3CCN(S(=O)(=O)c4ccc(F)c(Cl)c4)CC3)ncnc12	
	7.35	COC(=O)Nc1nc(C)c(S(=O)(=O)N2CCN(C[C@H](C)Nc3ncnc4c(C(F)(F)F)cccc34)CC2)s1	
4.74	4.95	Cc1csc2c(N[C@@H](C)CN3CC4CC3CN4S(=O)(=O)c3ccc(Cl)c(Cl)c3)ncnc12 (stereo partly specified)	
< 4.30	< 4.30	Cc1cccc2c(NC(C)CN3CCN(S(=O)(=O)c4ccc(Cl)c(Cl)c4)CC3)ncnc12 (stereo in doubt; 42a)	
	5.21	CC[C@@H](CN1CCN(S(=O)(=O)c2ccc(Cl)c(Cl)c2)CC1)Nc1ncnc2c(C)csc12	
	5.39	CC(=O)Nc1ccc(S(=O)(=O)N2CCN(C[C@H](C)Nc3ncnc4c(C)csc34)CC2)cc1Cl	
